Test results from patent US20160304461A1, “QUINOLONE COMPOUND AND PHARMACEUTICAL COMPOSITION” (OTSUKA PHARMACEUTICAL CO., LTD., priority 2007, published 2016).

melting point	SMILES
176 to 177 °C	CCCOc1ccc(F)c2c(=O)c(-c3ccc(N(C)C)cc3)c(C(F)(F)F)[nH]c12 [Example 79, 3-(4-Dimethylaminophenyl)-5-fluoro-8-propoxy-2-trifluoromethyl-1H-quinolin-4-one]
144 to 145 °C	COc1ccc(-c2c[nH]c3c(N(C)CC(C)C)ccc(F)c3c2=O)cc1 [Example 28, 5-Fluoro-8-(N-isobutyl-N-methylamino)-3-(4-methoxyphenyl)-1H-quinolin-4-one]
190 to 191 °C	CCCOc1ccc(F)c2c(=O)c(-c3ccsc3C=O)c[nH]c12 [Example 60, 3-(5-Fluoro-4-oxo-8-propoxy-1,4-dihydroquinolin-3-yl)thiophene-2-carbaldehyde]
180 to 181 °C	CCCOc1ccc(F)c2c(=O)c(-c3ccc(C(C)=O)cc3)c[nH]c12 [Example 54, 3-(4-Acetylphenyl)-5-fluoro-8-propoxy-1H-quinolin-4-one]
197 to 199 °C	CCCOc1ccc(F)c2c(=O)c(-c3ccc(OC)cc3C)c[nH]c12 [Example 16, 5-Fluoro-3-(4-methoxy-2-methylphenyl)-8-propoxy-1H-quinolin-4-one]
212 to 214 °C	CCCOc1ccc(F)c2c(=O)c(-c3ccc(OC(F)(F)F)cc3)c[nH]c12 [Example 5, 5-Fluoro-8-propoxy-3-(4-trifluoromethoxyphenyl)-1H-quinolin-4-one]
149 to 150 °C	CCCOc1ccc(F)c2c(=O)c(-c3cccs3)c(C(F)(F)F)[nH]c12 [Example 85, 5-Fluoro-8-propoxy-3-thiophen-2-yl-2-trifluoromethyl-1H-quinolin-4-one]
251 to 253 °C	CCCOc1ccc(F)c2c(=O)c(-c3ccc(O)cc3OC)c[nH]c12 [Example 97, 5-Fluoro-3-(4-hydroxy-2-methoxyphenyl)-8-propoxy-1H-quinolin-4-one]
234 to 236 °C	CCCOc1ccc(F)c2c(=O)c(-c3cccnc3)c[nH]c12 [Example 49, 5-Fluoro-8-propoxy-3-pyridin-3-yl-1H-quinolin-4-one]
230 to 232 °C	CCCOc1ccc(F)c2c(=O)c(-c3ccc(OC)cc3F)c[nH]c12 [Example 17, 5-Fluoro-3-(2-fluoro-4-methoxyphenyl)-8-propoxy-1H-quinolin-4-one]
236 to 237 °C	CCCOc1ccc(F)c2c(=O)c(-c3ccc(C(=O)N4CCCC4)cc3)c[nH]c12 [Example 56, 5-Fluoro-8-propoxy-3-[4-(pyrrolidine-1-carbonyl)phenyl]-1H-quinolin-4-one]
113 to 115 °C	CCCOc1ccc(F)c2c(=O)c(-c3ccc(OC(C)C)cc3OC)c[nH]c12 [Example 20, 5-Fluoro-3-(4-isopropoxy-2-methoxyphenyl)-8-propoxy-1H-quinolin-4-one]
235 to 237 °C	CCCOc1ccc(F)c2c(=O)c(-c3ccc(C(=O)N(C)C)cc3)c[nH]c12 [Example 57, 4-(5-Fluoro-4-oxo-8-propoxy-1,4-dihydroquinolin-3-yl)-N,N-dimethylbenzamide]
113 to 114 °C	CCCOc1ccc(F)c2c(=O)c(-c3ccco3)c(C(C)C)[nH]c12 [Example 84, 5-Fluoro-3-furan-2-yl-2-isopropyl-8-propoxy-1H-quinolin-4-one]
228 to 230 °C	CCCOc1ccc(F)c2c(=O)c(-c3ccc(Oc4ccccc4)cc3)c[nH]c12 [Example 52, 5-Fluoro-3-(4-phenoxyphenyl)-8-propoxy-1H-quinolin-4-one]
210 to 212 °C	CCCOc1ccc(F)c2c(=O)c(-c3ccco3)c[nH]c12 [Example 58, 5-Fluoro-3-furan-2-yl-8-propoxy-1H-quinolin-4-one]
143 to 144 °C	CCCOc1ccc(F)c2c(=O)c(-c3ccc(OC(F)(F)F)cc3)c(C(F)(F)F)[nH]c12 [Example 82, 5-Fluoro-8-propoxy-3-(4-trifluoromethoxyphenyl)-2-trifluoromethyl-1H-quinolin-4-one]
154 to 155 °C	CCOc1ccc(F)c2c(=O)c(-c3ccc(OC)cc3OC)c[nH]c12 [Example 12, 3-(2,4-Dimethoxyphenyl)-8-ethoxy-5-fluoro-1H-quinolin-4-one]
118 to 120 °C	CCCOc1ccc(F)c2c(=O)c(-c3ccc(OCC)cc3OC)c[nH]c12 [Example 19, 3-(4-Ethoxy-2-methoxyphenyl)-5-fluoro-8-propoxy-1H-quinolin-4-one]
100 to 101 °C	CCCOc1ccc(F)c2c(=O)c(-c3ccc(OC)cc3OC)c(C)[nH]c12 [Example 75, 3-(2,4-Dimethoxyphenyl)-5-fluoro-2-methyl-8-propoxy-1H-quinolin-4-one]
190 to 192 °C	CCCOc1ccc(F)c2c(=O)c(-c3cccnc3)c(C)[nH]c12 [Example 68, 5-Fluoro-2-methyl-8-propoxy-3-pyridin-3-yl-1H-quinolin-4-one]
259 to 261 °C	CCCOc1ccc(F)c2c(=O)c(-c3ccncc3)c[nH]c12 [Example 51, 5-Fluoro-8-propoxy-3-pyridin-4-yl-1H-quinolin-4-one]

melting point	SMILES
176 to 177 °C	CCCOc1ccc(F)c2c(=O)c(-c3ccc(OCC)c(F)c3)c[nH]c12 [Example 50, 3-(4-Ethoxy-3-fluorophenyl)-5-fluoro-8-propoxy-1H-quinolin-4-one]
134 to 135 °C	COc1ccc(-c2c[nH]c3c(Br)ccc(F)c3c2=O)cc1 [Example 22, 8-Bromo-5-fluoro-3-(4-methoxyphenyl)-1H-quinolin-4-one]
216 to 218 °C	COc1ccc(-c2c[nH]c3c(OCC(C)O)ccc(F)c3c2=O)cc1 (centres unmarked) [Example 102, 5-Fluoro-8-(2-hydroxypropoxy)-3-(4-methoxyphenyl)-1H-quinolin-4-one]
195 to 197 °C	CCCOc1ccc(F)c2c(=O)c(-c3ccc(OC)cc3)c(C(C)C)[nH]c12 [Example 83, 5-Fluoro-2-isopropyl-3-(4-methoxyphenyl)-8-propoxy-1H-quinolin-4-one]
256 to 259 °C	CCCOc1ccc(F)c2c(=O)c(-c3ccc(Cl)cc3Cl)c[nH]c12 [Example 10, 3-(2,4-Dichlorophenyl)-5-fluoro-8-propoxy-1H-quinolin-4-one]
208 to 209 °C	CCCOc1ccc(F)c2c(=O)c(-c3ccc(OC)cc3O)c[nH]c12 [Example 98, 5-Fluoro-3-(2-hydroxy-4-methoxyphenyl)-8-propoxy-1H-quinolin-4-one]
276 to 277 °C	COc1ccc(-c2c[nH]c3c(-c4cc5ccccc5s4)ccc(F)c3c2=O)cc1 [Example 88, 8-Benzo[b]thiophen-2-yl-5-fluoro-3-(4-methoxyphenyl)-1H-quinolin-4-one]
100 to 105 °C	COc1ccc(-c2c[nH]c3c(N4CCCC4)ccc(F)c3c2=O)cc1 [Example 18, 5-Fluoro-3-(4-methoxyphenyl)-8-pyrrolidin-1-yl-1H-quinolin-4-one]
267 to 269 °C	COc1ccc(-c2c[nH]c3c(N(C)C(C)C)ccc(F)c3c2=O)cc1 [Example 29, 5-Fluoro-8-(N-isopropyl-N-methylamino)-3-(4-methoxyphenyl)-1H-quinolin-4-one]
234 to 236 °C	CCCOc1ccc(F)c2c(=O)c(-c3ccc(C(=O)N4CCOCC4)cc3)c[nH]c12 [Example 90, 5-Fluoro-3-[4-(morpholine-4-carbonyl)phenyl]-8-propoxy-1H-quinolin-4-one]
193 to 194 °C	COc1ccc(-c2c[nH]c3c(OC(C)C)ccc(F)c3c2=O)cc1 [Example 9, 5-Fluoro-8-isopropoxy-3-(4-methoxyphenyl)-1H-quinolin-4-one]
116 to 118 °C	CCCOc1ccc(F)c2c(=O)c(-c3ccc(OC)cc3OC)c[nH]c12 [Example 8, 3-(2,4-Dimethoxyphenyl)-5-fluoro-8-propoxy-1H-quinolin-4-one]
229 to 231 °C	COc1ccc(-c2c[nH]c3c(OCCCNC(C)=O)ccc(F)c3c2=O)cc1 [Example 26, N-{3-[5-Fluoro-3-(4-methoxyphenyl)-4-oxo-1,4-dihydroquinolin-8-yloxy]propyl}acetamide]
169 to 171 °C	CCCOc1ccc(F)c2c(=O)c(-c3ccc(OC)cc3)c(CC)[nH]c12 [Example 48, 2-Ethyl-5-fluoro-3-(4-methoxyphenyl)-8-propoxy-1H-quinolin-4-one]
203 to 205 °C	CCCOc1ccc(F)c2c(=O)c(-c3ccc(OCC)cc3)c[nH]c12 [Example 33, 3-(4-Ethoxyphenyl)-5-fluoro-8-propoxy-1H-quinolin-4-one]
265 to 266 °C	CCCOc1ccc(F)c2c(=O)c(-c3ccncc3)c(C)[nH]c12 [Example 69, 5-Fluoro-2-methyl-8-propoxy-3-pyridin-4-yl-1H-quinolin-4-one]
271 to 272 °C	CCCOc1ccc(F)c2c(=O)c(-c3ccc(O)cc3)c[nH]c12 [Example 95, 5-Fluoro-3-(4-hydroxyphenyl)-8-propoxy-1H-quinolin-4-one]
120 to 121 °C	COc1ccc(-c2c[nH]c3c(OCCCNS(C)(=O)=O)ccc(F)c3c2=O)cc1 [Example 27, N-{3-[5-Fluoro-3-(4-methoxyphenyl)-4-oxo-1,4-dihydroquinolin-8-yloxy]propyl}methanesulfonamide]
303 to 305 °C (dec.)	O=c1c(-c2ccc(O)cc2)c[nH]c2c(O)ccc(F)c12 [Example 96, 5-Fluoro-8-hydroxy-3-(4-hydroxyphenyl)-1H-quinolin-4-one]
211 to 212 °C	CCCOc1ccc(F)c2c(=O)c(-c3ccc(OC)cc3)c(C)[nH]c12 [Example 67, 5-Fluoro-3-(4-methoxyphenyl)-2-methyl-8-propoxy-1H-quinolin-4-one]
154 to 155 °C	CCCOc1ccc(F)c2c(=O)c(-c3ccc(F)cc3)c(C(F)(F)F)[nH]c12 [Example 81, 5-Fluoro-3-(4-fluorophenyl)-8-propoxy-2-trifluoromethyl-1H-quinolin-4-one]
196 to 197 °C	CCCOc1ccc(F)c2c(=O)c(-c3ccc(F)cc3)c(C)[nH]c12 [Example 74, 5-Fluoro-3-(4-fluorophenyl)-2-methyl-8-propoxy-1H-quinolin-4-one]
